Laboratory results as given in patent publication US8518958B2, “Pyrido [2,3-D] pyrimidines and their use as kinase inhibitors” (Forma Therapeutics, Inc., priority 2006, dated 2013).

Legend:
[1] = tested on: HT-29 tumor cells; assay: Anti-proliferative activity, SRB assay; type: cell-based, human; conditions: Homo sapiens, HT-29, 72 h, 72 hours exposure, read-out: CELLULAR IC50 HT-29
Experimental: We observed the surprising finding that compounds of the invention were useful in inhibiting proliferation of HT-29 tumor cells (see Table 3).
3,000-15,000 cells/well were exposed to the test compounds at various concentrations appropriate to determine an IC50, for 72 hours, and cell proliferation was measured using the SRB assay according to Shekan et al (J Natl Cancer Inst (1990) 82, 1107-112) in order to estimate the IC50 values shown in Table 3. Briefly, cells were plated in 96 well dishes 24 hours prior to compound addition. The assay was terminated with the addition of cold TCA to a final concentration of 10% and the plates were incubated for one hour at 4° C. The plates were then washed 5 times with water and 100 μl of a Sulforhodamine B solution (4%) was added to each well. The plate was then incubated for 10 minutes at room temperature before removal of unbound dye by washing with 1% acetic acid. The bound dye was solubilized with 10 mM Trizma base and the absorbance read at OD570. Inhibitory activity of the compounds was calculated as % inhibition of cell proliferation compared to cells treated with the solvent (DMSO).

[2] = target: B-Raf delta1-415 (Homo sapiens, UniProt P15056); assay: B-Raf kinase inhibition (MAPH filter plate, 33P-ATP, MEK1 substrate); conditions: read-out: Biochemical IC50 B-Raf
Description: We characterized the in vitro inhibitory activity against protein kinases of compounds of the present invention by determining their IC50 values (see Table 2).
Kinase: B-Raf delta1-415 (e.g., Upstate Cat. No. 14-530)
Reaction Temperature: room temperature
Assay Plate: 96 well U bottom plate (Greiner, 650161)
MultiScreen-PH Plate: 96 well MAPH Filter Plates (Millipore, MAPHNOB50)
Filter Washing Solution: 0.75% H3PO4
Szintilation Liquid: Supermix Liquid Szintillator (PerkinElmer, 1200-439)
Negative Control (C−): 100 mM EDTA, no Inhibitor
Positive Control (C+): no Inhibitor
Reaction Buffer: 20 mM Mops, pH 7.0 • 10 mM MgCl2 • 0.4 mM MnCl2 • 100 mM NaCl • 1 mM DTT • 0.01% NP40
Final Assay Concentrations:
Kinase: Kinase conc. yielding 50% substrate turnover as determined in titration experiment.
Adenosine 5′-[γ-^33P]triphosphate: 12.5 μCi/ml (Amersham Biosciences, BF1000)
Pipetting Sequence: • 1) Add 10 μl 4-fold concentrated substrate in 3-fold concentrated reaction buffer to each well of assay plate • 2) Add 10 μl 4-fold concentrated inhibitor in 4% DMSO in H2O to each well except to C− and C+ wells (starting point: final inhibitor concentration 10 μM; IC50 determination based on dilution series) • 3) Add 10 μl 4% DMSO in H2O to C− and C+ wells • 4) Add 10 μl 500 mM EDTA in H2O to C− wells • 5) Add 10 μl 50 μCi/ml adenosine 5′-[γ-^33P]triphosphate in H2O+4-fold cold ATP to each well • 6) Add 10 μl 4-fold concentrated kinase in reaction buffer to each well • 7) Incubate 1 hr at room temperature • 8) Add 10 μl 50 mM EDTA in H2O to each well except to C− wells • 9) Prepare MAPH plates by adding 200 μl 0.75% H3PO4 to each well • 10) Exhaust 0.75% H3PO4 using Millipore vacuum station • 11) Add 60 μl 0.75% H3PO4 to each well of MAPH filter plate • 12) Transfer 30 μl sample per well from assay plate to corresponding well of MAPH filter plate • 13) Incubate 30 min at room temperature • 14) Wash each well of MAPH filter plates 3× with 200 μl 0.75% H3PO4 using Millipore vacuum station • 15) Add 20 μl scintillation liquid to each well of MAPH filter plate • 16) Seal MAPH filter plate • 17) Store MAPH filter plate 30 min in darkness • 18) Quantify radioactivity using scintillation counter (MicroBeta, Perkin-Elmer)

Sequence of B-Raf delta1-415 (P15056 416-766): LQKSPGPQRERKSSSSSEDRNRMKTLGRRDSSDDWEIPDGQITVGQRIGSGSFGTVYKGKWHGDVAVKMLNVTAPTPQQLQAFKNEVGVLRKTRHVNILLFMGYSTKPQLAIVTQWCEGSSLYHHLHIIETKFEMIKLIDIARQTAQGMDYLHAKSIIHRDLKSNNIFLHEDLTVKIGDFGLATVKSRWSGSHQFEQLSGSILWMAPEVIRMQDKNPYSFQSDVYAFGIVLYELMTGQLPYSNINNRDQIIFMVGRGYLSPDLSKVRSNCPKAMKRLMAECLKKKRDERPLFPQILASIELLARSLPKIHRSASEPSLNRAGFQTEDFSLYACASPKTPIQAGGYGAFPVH

For `COn1c(=O)c(-c2c(F)cccc2Cl)cc2cnc(Nc3ccc(N4CCN(C(C)C)CC4)cc3)nc21` [Compound 203, 6-(2-Chloro-6-fluorophenyl)-8-methoxy-2-(4-(4-(1-methylethyl)piperazino)phenyl)-amino-pyrido[2,3-d]pyrimidin-7-one], which IC50 [1] is on record?
The IC50 was < 1000 nM.

And the IC50 [2]?
Its IC50 is < 100 nM.

For `CCOn1c(=O)c(-c2c(F)cccc2Cl)cc2cnc(Nc3ccc(N4CCOCC4)cc3)nc21` [Compound 128], which IC50 [1] is on record?
The IC50 was < 1000 nM.

What about the IC50 [2] of the same compound?
The IC50 was < 100 nM.

Which results are given for `COC(=O)c1ccc(Nc2ncc3cc(-c4c(Cl)cccc4Cl)c(=O)n(OC)c3n2)cc1` [Compound 162, 6-(2,6-Dichlorophenyl)-2-(4-methoxycarbonylphenyl)-amino-8-methoxy-pyrido[2,3-d]pyrimidin-7-one]?
IC50 [1]: < 1000 nM; IC50 [2]: > 1000 nM

Which IC50 [2] does the source give for `CN1CCN(c2ccc(Nc3ncc4ccc(=O)n(OC(C)(C)C)c4n3)cc2)CC1` [Compound 233] here?
Its IC50 is > 1000 nM.

Which results are given for `COn1c(=O)c(-c2c(Cl)cccc2Cl)cc2cnc(Nc3cccc(CN4CC[C@H](O)C4)c3)nc21` [Compound 181, 6-(2,6-Dichlorophenyl)-2-(3-(3-(S)-hydroxypyrrolidinomethyl)phenyl)-amino-8-methoxy-pyrido[2,3-d]pyrimidin-7-one]?
IC50 [1]: < 1000 nM; IC50 [2]: < 500 nM

With `COn1c(=O)c(-c2c(Cl)cccc2Cl)cc2cnc(Nc3cc(C(=O)N4CCNCC4)n(C)c3)nc21` [Compound 185, 6-(2,6-Dichlorophenyl)-8-methoxy-2-(5-piperazinocarbonyl-1-methyl-pyrrol-3-yl)-amino-pyrido[2,3-d]pyrimidin-7-one] as the compound, how does the IC50 [1] read?
Its IC50 is < 1000 nM.

What about the IC50 [2] of the same compound?
The IC50 was < 100 nM.

With `COn1c(=O)c(-c2c(Cl)cccc2Cl)cc2cnc(Nc3ccc(OCC(O)CO)cc3)nc21` (stereo not drawn) [Compound 93, 6-(2,6-Dichlorophenyl)-2-(4-(2,3-dihydroxypropyl)oxyphenyl) amino-8-methoxy-pyrido[2,3-d]pyrimidin-7-one] as the compound, how does the IC50 [1] read?
The IC50 was < 1000 nM.

What about the IC50 [2] of the same compound?
Its IC50 is < 500 nM.

Which results are given for `COn1c(=O)c(-c2c(Cl)cccc2Cl)cc2cnc(Nc3cc(C(=O)N(C)CCOC(=O)c4cccnc4)n(C)c3)nc21` [Compound 159]?
IC50 [1]: < 1000 nM; IC50 [2]: < 500 nM

Which results are given for `COn1c(=O)c(-c2c(Cl)cccc2Cl)cc2cnc(Nc3ccc(N4CCCC4=O)cc3)nc21` [Compound 110, 6-(2,6-Dichlorophenyl)-8-methoxy-2-(4-(2-oxopyrrolidino)phenyl)-amino-pyrido[2,3-d]pyrimidin-7-one]?
IC50 [1]: < 1000 nM; IC50 [2]: < 100 nM

With `CN1CC[C@H](COn2c(=O)c(-c3c(F)cccc3Cl)cc3cnc(Nc4ccc(N5CCOCC5)cc4)nc32)C1` [Compound 212, 6-(2-Chloro-6-fluorophenyl)-8-(3-(S)-1-methyl-pyrrolidin-3-yl)methoxy-2-(4-morpholinophenyl)-amino-pyrido[2,3-d]pyrimidin-7-one] as the compound, how does the IC50 [1] read?
Its IC50 is < 1000 nM.

What about the IC50 [2] of the same compound?
The IC50 was < 100 nM.

What does the source list for `COn1c(=O)c(-c2c(Cl)cccc2Cl)cc2cnc(Nc3cccc(Cn4cncn4)c3)nc21` [Compound 134, 6-(2,6-Dichlorophenyl)-8-methoxy-2-(3-(1,2,4-triazol-1-ylmethyl)phenyl)-amino-pyrido[2,3-d]pyrimidin-7-one]?
IC50 [1]: < 1000 nM; IC50 [2]: < 100 nM

With `O=c1c(-c2c(F)cccc2Cl)cc2cnc(Nc3ccc(N4CCOCC4)cc3)nc2n1OC[C@@H]1CCNC1` [Compound 149] as the compound, how does the IC50 [1] read?
The IC50 was < 1000 nM.

What about the IC50 [2] of the same compound?
The IC50 was < 100 nM.

`COn1c(=O)c(-c2c(F)cccc2Cl)cc2cnc(Nc3ccc(N4CCN(S(C)(=O)=O)CC4)cc3)nc21` [Compound 223, 6-(2-Chloro-6-fluorophenyl)-8-methoxy-2-(4-(4-methylsulfonylpiperazino)phenyl)-amino-pyrido[2,3-d]pyrimidin-7-one] was tested. Which IC50 [1] did it give?
Its IC50 is < 1000 nM.

And the IC50 [2]?
Its IC50 is < 100 nM.

How did the IC50 [1] turn out when `COn1c(=O)c(-c2c(Cl)cccc2Cl)cc2cnc(Nc3ccc(CN4CCC(F)(F)C4)cc3)nc21` [Compound 196, 6-(2,6-Dichlorophenyl)-2-(4-(3,3-difluoropyrrolidinomethyl)phenyl)-amino-8-methoxy-pyrido[2,3.-d]pyrimidin-7-one] was run?
Its IC50 is < 1000 nM.

What about the IC50 [2] of the same compound?
The IC50 was < 500 nM.

Which IC50 [1] does the source give for `COn1c(=O)c(-c2c(Cl)cccc2Cl)cc2cnc(Nc3cccc(S(=O)(=O)N4CCOCC4)c3)nc21` [Compound 127, 6-(2,6-Dichlorophenyl)-2-(3-morpholinosulfonylphenyl)-amino-8-methoxy-pyrido[2,3-d]pyrimidin-7-one] here?
The IC50 was < 1000 nM.

What about the IC50 [2] of the same compound?
The IC50 was < 500 nM.

For `COn1c(=O)c(-c2c(Cl)cccc2Cl)cc2cnc(Nc3ccc(S(=O)(=O)CCCO)cc3)nc21` [Compound 160, 6-(2,6-Dichlorophenyl)-2-(4-(3-hydroxypropyl)sulfonylphenyl)-amino-8-methoxy-pyrido[2,3-d]pyrimidin-7-one], which IC50 [1] is on record?
Its IC50 is < 1000 nM.

And the IC50 [2]?
Its IC50 is < 100 nM.

`COCCN(C)C(=O)c1cc(Nc2ncc3cc(-c4c(Cl)cccc4Cl)c(=O)n(OC)c3n2)cn1C` [Compound 154, 6-(2,6-Dichlorophenyl)-8-methoxy-2-(5-N-(2-methoxyethyl)-N-methyl-aminocarbonyl-1-methyl-pyrrol-3-yl)-amino-pyrido[2,3-d]pyrimidin-7-one] was tested. Which IC50 [1] did it give?
Its IC50 is < 1000 nM.

And the IC50 [2]?
Its IC50 is < 500 nM.

Which results are given for `COn1c(=O)c(-c2c(Cl)cccc2Cl)cc2cnc(Nc3cc(C(=O)N(C)CCOC(=O)c4ccccc4)n(C)c3)nc21` [Compound 141]?
IC50 [1]: < 1000 nM; IC50 [2]: < 500 nM

What does the source list for `COn1c(=O)c(-c2c(F)cccc2Cl)cc2cnc(Nc3ccc(N4CCNCC4)c(C#N)c3)nc21` [Compound 213, 6-(2-Chloro-6-fluorophenyl)-8-methoxy-2-(3-cyano-4-piperazinophenyl)-amino-pyrido[2,3-d]pyrimidin-7-one]?
IC50 [1]: < 1000 nM; IC50 [2]: < 100 nM

`COCCN(C)C(=O)c1cc(Nc2ncc3cc(-c4c(Cl)cccc4Cl)c(=O)n(OCC4CCOCC4)c3n2)cn1C` [Compound 177, 6-(2,6-dichlorophenyl)-2-(5-N-(2-methoxyethyl)-N-methyl-aminocarbonyl-1-methyl-pyrrol-3-yl)-amino-8-(tetrahydropyran-4-ylmethyl)oxy-pyrido[2,3-d]pyrimidin-7-one] was tested. Which IC50 [1] did it give?
The IC50 was < 1000 nM.

What about the IC50 [2] of the same compound?
The IC50 was < 500 nM.

What does the source list for `COn1c(=O)c(-c2c(F)cccc2Cl)cc2cnc(Nc3ccc(C4CCNCC4)cc3)nc21` [Compound 222, 6-(2-Chloro-6-fluorophenyl)-8-methoxy-2-(4-(piperidin-4-yl)phenyl)-amino-pyrido[2,3-d]pyrimidin-7-one]?
IC50 [1]: < 1000 nM; IC50 [2]: < 100 nM

`COc1cc(Nc2ncc3cc(-c4c(Cl)cccc4Cl)c(=O)n(OC)c3n2)ccc1N1CCNCC1` [Compound 227, 6-(2,6-Dichlorophenyl)-8-methoxy-2-(3-methoxy-4-piperazino-phenyl)-amino-pyrido[2,3-d]pyrimidin-7-one] was tested. Which IC50 [1] did it give?
The IC50 was < 1000 nM.

For `Cn1cc(Nc2ncc3cc(-c4c(F)cccc4Cl)c(=O)n(OCC4CCOCC4)c3n2)cc1C(=O)N1CCNCC1` [Compound 224, 6-(2-Chloro-6-fluorophenyl)-2-(5-(piperazinocarbonyl)-1-methyl-pyrrol-3-yl)-amino-8-(tetrahydropyran-4-ylmethyl)oxy-pyrido[2,3-d]pyrimidin-7-one], which IC50 [1] is on record?
The IC50 was < 1000 nM.

With `NCCCCOn1c(=O)c(-c2c(Cl)cccc2Cl)cc2cnc(Nc3ccccc3)nc21` [Compound 66, 8-(4-Aminobutyl)oxy-6-(2,6-dichlorophenyl)-2-phenylamino-pyrido[2,3-d]pyrimidin-7-one] as the compound, how does the IC50 [2] read?
The IC50 was < 100 nM.

Which IC50 [1] does the source give for `CN1CCN(c2ccc(Nc3ncc4ccc(=O)n(OC5CCCCC5)c4n3)cc2)CC1` [Compound 236] here?
The IC50 was < 1000 nM.
